Measurements published in US8569313B2, “Meta-substituted phenyl sulfonyl amides of secondary amino acid amides, the production thereof, and use thereof as matriptase inhibitors” (The Medicines Company (Leipzig) GmbH, priority 2007, dated 2013).

Biological target: matriptase (Homo sapiens (Human), UniProt Q9Y5Y6)
Experiment: Determination of the matriptase inhibition (chromogenic substrate CH3SO2-D-Cha-Gly-Arg-pNA, Dixon Ki)
Assay type: biochemical
Settings: 25° C., pH 8.0; means of at least two determinations
Experimental: Determination of the Matriptase Inhibition
To determine the inhibition effect, 200 μl Tris buffer (inhibitor contains 0.05 M, 0.154 M NaCl, 5% ethanol, pH 8.0), 25 μl substrate (CH3SO2-D-Cha-Gly-Arg-pNA; 2 and 1 mM) and 50 μl matriptase (0.5 μg/ml) were incubated at 25° C. After 3 min the reaction was halted through the addition of 25 μl acetic acid (50%) and the Absorption determined at 405 nm by means of a Microplate Reader (Multiscan Ascent from the company Thermo Electron Corporation). The Ki values were calculated according to Dixon (Biochem. J. 55, 170-171, 1953) through linear regression by means of a computer program. The Ki-values are the means of at least two determinations.
Ki value for the inhibition of matriptase in nM (n.d.=not determined)

matriptase, sequence (Q9Y5Y6 whole entry): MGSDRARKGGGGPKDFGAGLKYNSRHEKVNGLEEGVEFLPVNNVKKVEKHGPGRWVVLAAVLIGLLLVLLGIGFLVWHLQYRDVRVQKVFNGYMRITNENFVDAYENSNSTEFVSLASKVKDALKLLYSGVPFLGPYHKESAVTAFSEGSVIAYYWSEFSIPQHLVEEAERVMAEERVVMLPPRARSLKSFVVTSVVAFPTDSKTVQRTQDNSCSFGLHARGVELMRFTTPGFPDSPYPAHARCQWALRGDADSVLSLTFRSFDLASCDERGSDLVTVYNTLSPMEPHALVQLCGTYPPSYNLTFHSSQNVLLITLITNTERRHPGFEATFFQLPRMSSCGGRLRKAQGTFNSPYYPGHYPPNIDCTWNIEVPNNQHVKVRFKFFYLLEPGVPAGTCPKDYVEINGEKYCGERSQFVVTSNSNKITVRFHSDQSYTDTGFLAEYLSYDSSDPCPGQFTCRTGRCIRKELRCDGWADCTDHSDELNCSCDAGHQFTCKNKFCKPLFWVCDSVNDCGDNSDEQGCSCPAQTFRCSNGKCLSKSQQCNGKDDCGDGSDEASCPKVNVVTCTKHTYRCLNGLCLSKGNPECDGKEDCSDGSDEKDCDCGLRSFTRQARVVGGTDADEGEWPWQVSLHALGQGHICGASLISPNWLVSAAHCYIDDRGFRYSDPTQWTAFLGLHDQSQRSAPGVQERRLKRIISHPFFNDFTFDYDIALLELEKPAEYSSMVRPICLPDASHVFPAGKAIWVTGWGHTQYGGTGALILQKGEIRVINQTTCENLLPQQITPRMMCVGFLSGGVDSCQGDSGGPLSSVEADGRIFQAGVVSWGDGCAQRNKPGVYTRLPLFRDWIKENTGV

Compound | Ki [nM]
COC(=O)CCCC1CCN(C(=O)[C@H](Cc2cccc(C(=N)N)c2)NS(=O)(=O)c2cccc(NC(=O)CCN)c2)CC1 [Inhibitor 20] | 6.1
N=C(N)c1cccc(C[C@H](NS(=O)(=O)c2cccc(NC(=O)C3CNC3)c2)C(=O)N2CCC(CCN)CC2)c1 [Inhibitor 40] | 1.7
N=C(N)c1cccc(C[C@H](NS(=O)(=O)c2cccc(NC(=O)CCO)c2)C(=O)N2CCC(CCN)CC2)c1 [Inhibitor 37] | 117
N=C(N)c1cccc(C[C@H](NS(=O)(=O)c2cccc(NC(=O)CCN)c2)C(=O)N2CCC(CCCC(=O)O)CC2)c1 [Inhibitor 22] | 255
N=C(N)c1cccc(CC(NS(=O)(=O)c2cccc(C3CCC(N)=NC3)c2)C(=O)N2CCC(CCN)CC2)c1 (stereo not drawn) [Inhibitor 15] | 0.069
CNC(=O)CCCC1CCN(C(=O)[C@H](Cc2cccc(C(=N)N)c2)NS(=O)(=O)c2cccc(-c3ccc(N)nc3)c2)CC1 [Inhibitor 46] | 11
N=C(N)c1cccc(C[C@H](NS(=O)(=O)c2cccc(NC(=O)CCN)c2)C(=O)N2CCN(C(=O)OCc3ccccc3)CC2)c1 [Inhibitor 26] | 6.1
N=C(N)c1cccc(C[C@H](NS(=O)(=O)c2cccc(NC(=O)CCN)c2)C(=O)N2CCCC(C(N)=O)C2)c1 (stereo partly drawn) [Inhibitor 24] | 30.5
N=C(N)c1cccc(C[C@H](NS(=O)(=O)c2cccc(NC(=O)CCN)c2)C(=O)N2CCC(C(=O)OCc3ccccc3)CC2)c1 [Inhibitor 48] | 0.7
NCCC(=O)Nc1cccc(S(=O)(=O)N[C@@H](Cc2cccc(CN)c2)C(=O)N2CCC(CCN)CC2)c1 [Inhibitor 34, H-βAla-3-NH-phenyl sulfonyl-Phe(3-Ame)-(2-aminoethyl)piperidide] | 56
CNC(=O)CCCC1CCN(C(=O)[C@H](Cc2cccc(C(=N)N)c2)NS(=O)(=O)c2cccc(C3CCC(N)=NC3)c2)CC1 (stereo partly drawn) [Inhibitor 47] | 0.49
CNC(=O)CCCC1CCN(C(=O)[C@H](Cc2cccc(C(=N)N)c2)NS(=O)(=O)c2cccc(-c3ccc(C(C)(C)C)cc3)c2)CC1 [Inhibitor 41] | 87
NCCC(=O)Nc1cccc(S(=O)(=O)N[C@@H](Cc2cccc(CN)c2)C(=O)N2CCN(C(=O)OCc3ccccc3)CC2)c1 [Inhibitor 36] | 44.5
N=C(N)c1cccc(C[C@H](NS(=O)(=O)c2cccc(NC(=O)CCN)c2)C(=O)N2CCNCC2)c1 [Inhibitor 27] | 36
CNC(=O)CCCC1CCN(C(=O)[C@H](Cc2cccc(C(=N)N)c2)NS(=O)(=O)c2cccc(N3CCCCC3=O)c2)CC1 [Inhibitor 30] | 31
N=C(N)c1cccc(C[C@H](NS(=O)(=O)c2cccc(CCCCN)c2)C(=O)N2CCC(CCN)CC2)c1 [Inhibitor 16, 3-(1-aminobutyl)-phenyl sulfonyl-Phe(3-Amidino)-4-(2-aminoethyl)piperidide] | 0.74
CNC(=O)CCCC1CCN(C(=O)[C@H](Cc2cccc(C(=N)N)c2)NS(=O)(=O)c2cccc(NC(=O)CCN)c2)CC1 [Inhibitor 17, N-(3-β-Ala)amidophenyl sulfonyl-Phe(3-Am)-piperidine buteryl-N-methylamide] | 6.3
H-βAla-3-NH-phenyl sulfonyl-Phe(3-Am)-4-piperidyl-(CH2)3—CONH—(CH2)2-PEG10000-CH3 [Inhibitor 50] | 54
CNC(=O)CCCC1CCN(C(=O)[C@H](Cc2cccc(C(=N)N)c2)NS(=O)(=O)c2cccc(-c3ccc(C(C)C)cc3)c2)CC1 [Inhibitor 44] | 23.5
N=C(N)c1cccc(C[C@H](NS(=O)(=O)c2cccc(NC(=O)CCN)c2)C(=O)N2CCC(CCCC(N)=O)CC2)c1 [Inhibitor 21] | 11.8
N=C(N)c1cccc(C[C@H](NS(=O)(=O)c2cccc(NC(=O)CCN)c2)C(=O)N2CCCCC2)c1 [Inhibitor 28] | 32
CNC(=O)CCCC1CCN(C(=O)C(Cc2cccc(C(=N)N)c2)NS(=O)(=O)c2cccc(-n3ncccc3=O)c2)CC1 (stereo not drawn) [Inhibitor 29] | 98
CNC(=O)CCCC1CCN(C(=O)[C@H](Cc2cccc(C(=N)N)c2)NS(=O)(=O)c2cccc(NC(=O)C3CNC3)c2)CC1 [Inhibitor 38] | 16
N=C(N)c1cccc(C[C@H](NS(=O)(=O)c2cccc(NC(=O)CCN)c2)C(=O)N2CCC(C(N)=O)CC2)c1 [Inhibitor 23] | 12.1

Continued, values first:

Ki [nM] | Compound
91 | N=C(N)c1cccc(CC(NS(=O)(=O)c2cccc(-c3cccc(Cl)c3)c2)C(=O)N2CCC(CCN)CC2)c1 (stereo not drawn) [Inhibitor 8]
26 | N=C(N)c1cccc(CC(NS(=O)(=O)c2cccc(-c3ccc(Cl)cc3)c2)C(=O)N2CCC(CCN)CC2)c1 (stereo not drawn) [Inhibitor 7]
12 | CC(C)Oc1ccc(-c2cccc(S(=O)(=O)NC(Cc3cccc(C(=N)N)c3)C(=O)N3CCC(CCN)CC3)c2)cc1 (stereo not drawn) [Inhibitor 6]
60 | N=C(N)c1cccc(CC(NS(=O)(=O)c2cccc(-c3ccncc3)c2)C(=O)N2CCC(CCN)CC2)c1 (stereo not drawn) [Inhibitor 10]
24000 | CCc1ccc(-c2cccc(S(=O)(=O)N[C@@H](Cc3cccc(/C(N)=N\O)c3)C(=O)N3CCC(CCCC(=O)NC)CC3)c2)cc1 [Inhibitor 33]
100 | N=C(N)c1cccc(CC(NS(=O)(=O)c2cccc(-c3ccccc3)c2)C(=O)N2CCC(CCN)CC2)c1 (stereo not drawn) [Inhibitor 2]
24.5 | CCc1ccc(-c2cccc(S(=O)(=O)N[C@@H](Cc3cccc(C(=N)N)c3)C(=O)N3CCC(CCCC(=O)NC)CC3)c2)cc1 [Inhibitor 19]
29 | N=C(N)c1cccc(CC(NS(=O)(=O)c2cccc(-c3ccccc3Cl)c2)C(=O)N2CCC(CCN)CC2)c1 (stereo not drawn) [Inhibitor 9]
8.1 | CCOc1ccc(-c2cccc(S(=O)(=O)N[C@@H](Cc3cccc(C(=N)N)c3)C(=O)N3CCC(CCCC(=O)NC)CC3)c2)cc1 [Inhibitor 18]
6 | COc1ccc(-c2cccc(S(=O)(=O)NC(Cc3cccc(C(=N)N)c3)C(=O)N3CCC(CCN)CC3)c2)cc1 (stereo not drawn) [Inhibitor 3]
5.4 | COc1ccc(-c2cccc(S(=O)(=O)NC(Cc3cccc(C(=N)N)c3)C(=O)N3CCC(CCN)CC3)c2)cc1OC (stereo not drawn) [Inhibitor 1, 3-(3,4-dimethoxyphenyl)phenyl sulfonyl-d/l-Phe(3-Am)-4-(2-aminoethyl)piperidide]
4.2 | N=C(N)c1cccc(CC(NS(=O)(=O)c2cccc(-c3ccc(N)nc3)c2)C(=O)N2CCC(CCN)CC2)c1 (stereo not drawn) [Inhibitor 14]
145 | COc1ccc(-c2cccc(S(=O)(=O)NC(Cc3cccc(CN)c3)C(=O)N3CCC(CCN)CC3)c2)cc1 (stereo not drawn) [Inhibitor 35]
13 | N=C(N)c1cccc(CC(NS(=O)(=O)c2cccc(-c3ccc4[nH]ccc4c3)c2)C(=O)N2CCC(CCN)CC2)c1 (stereo not drawn) [Inhibitor 13]
28 | Cc1nccc(-c2cccc(S(=O)(=O)N[C@@H](Cc3cccc(C(=N)N)c3)C(=O)N3CCC(CCN)CC3)c2)n1 [Inhibitor 12]
47 | N=C(N)c1cccc(CC(NS(=O)(=O)c2cccc(-c3cccnc3)c2)C(=O)N2CCC(CCN)CC2)c1 (stereo not drawn) [Inhibitor 11]
5.4 | CCOc1ccc(-c2cccc(S(=O)(=O)NC(Cc3cccc(C(=N)N)c3)C(=O)N3CCC(CCN)CC3)c2)cc1 (stereo not drawn) [Inhibitor 4]
2.5 | CCc1ccc(-c2cccc(S(=O)(=O)NC(Cc3cccc(C(=N)N)c3)C(=O)N3CCC(CCN)CC3)c2)cc1 (stereo not drawn) [Inhibitor 5]
